Measured values reported in patent publication US20240285773A1, “METHODS OF TREATING MYELODYSPLASTIC SYNDROME AND MONITORING THE TREATMENT” (Geron Corporation, priority 2023, published 2024).
Read-outs that look alike come from different tables or passages of the source. [nps] = N3'→P5' thiophosphoramidate linkage; {Palm} = palmitoyl lipid

How the values were obtained:
[1] = system: RBC transfusion-dependent patients with IPSS low or intermediate-1 risk MDS
DNMT3A = test: Gene mutation analysis (NGS): DNMT3A VAF and clinical response; assay type: in vivo, human; settings: imetelstat group
From the text: VAF for the target genes can be determined and/or measured using any convenient methods. In one such method, whole blood collected in an EDTA tube is used to perform Next Generation Sequencing (NGS), for example, using LeukoVantage®. NGS using any other sequencing platform can be used, for example, nanopore sequencing, paired-end sequencing, Ion Torrent sequencing, and single molecule real time (SMRT) sequencing. An MDS gene panel can be used. For example, a gene panel containing one or more of SF3B1, TET2, DNMT3A and ASXL1 can be used. […] The percentage of mutation reads will be reported and can be used to assess the size of the clonal population. VAF is the percentage of sequence reads observed matching a specific DNA variant divided by the overall coverage at that locus. […]
VAF changes were assessed from blood taken pre- and every 12 weeks post-treatment in patients with greater than or equal to 5% variant allele at baseline and >1 post-baseline assessment. T-tests evaluated group comparison, Fisher's exact test evaluated association, and linear regression evaluated correlation. […]
Blood samples were collected at baseline and during study visits approximately every 12 weeks. […] The lower limit of sensitivity is 5% mutated alleles in a mixed population; the percentage of mutation reads is reported and used to assess the size of the clonal population.

patients with LR-MDS = test: Patient-reported fatigue (FACIT Fatigue Scale); assay type: in vivo, human; settings: PRO population
From the text: To measure patient-reported fatigue, data were collected using the validated Functional Assessment of Chronic Illness Therapy (FACIT) Scale and analyzed in all randomized patients with available fatigue data at baseline (PRO population). The FACIT is a 13-item questionnaire measuring fatigue during daily activity. Proportion of sustained, meaningful deterioration/improvement was defined as percentage of pts with ≥3-point decrease/increase on the FACIT Fatigue Scale (0-52) for ≥2 consecutive treatment cycles. Additionally, time-to-deterioration/improvement was estimated by Kaplan-Meier analysis. Sensitivity analyses were performed in the intent-to-treat population and with alternate definitions of meaningful deterioration.
Exploratory End Point Patient-Reported Fatigue: Proportion of sustained meaningful deterioration/improvement was defined as percentage of patients with ≥3-point decrease/increase on the Functional Assessment of Chronic Illness Therapy (FACIT) Fatigue Scale (0-52) for ≥2 consecutive treatment cycles.
Meaningful improvement in FACIT Fatigue: Psychometric supportive evidence for the use of the FACIT Fatigue in the context of LR-MDS confirms the previously published threshold of a 3-point change for meaningful within-patient change for the FACIT Fatigue.

[2] = by lab assessment, listed as imetelstat

Which “Thrombocytopenia, maximum postbaseline CTCAE Grade 4” value ([1]; Cycle 10-12 (N=53)) does the source give for “Imetelstat: first-in-class telomerase inhibitor; synthetic lipid-conjugated 13-mer oligonucleotide N3′→P5′-thiophosphoramidate (TAGGGTTAGACAA; all [nps], 5' {Palm}, sugars by position and methylation of C not given here)” here?
The value was 0 No. of Patients.

And the “ALP abnormality, Grade 3-4” value ([1]; N=118)?
Its value is 0 No. of patients.

And the “Serious TEAE: Abscess limb” value ([1]; N=118)?
The value was 0 No.

And the “Patients with any dose reduction” value ([1]; N=118, listed as imetelstat)?
The value was 49%.

What about the “Withdrawal TEAE: Neutropenia” value ([1]; N=118, listed as imetelstat) of the same substance?
The value was 5%.

What about the “Withdrawal TEAE: Thrombocytopenia” value ([1]; N=118, listed as imetelstat) of the same substance?
The value was 3%.

What about the “Asthenia, Grade 3-4” value ([1]; TEAE, N=118) of the same substance?
The value was 0 No. of patients.

And the “Constipation, Grade 3-4” value ([1]; TEAE, N=118)?
Its value is 0 No. of patients.

What about the “Edema peripheral, Grade 3-4” value ([1]; TEAE, N=118) of the same substance?
The value was 0 No. of patients.

What about the “G3/4 Neutropenia events” value ([1]; by lab assessment) of the same substance?
The value was 279 no. of events.

What about the “G3/4 Neutropenia median duration” value ([1]; by lab assessment) of the same substance?
The value was 1.86 Weeks.

What about the “G3/4 Thrombocytopenia events” value ([1]; by lab assessment) of the same substance?
Its value is 212 no. of events.

And the “G3/4 Thrombocytopenia median duration” value ([1]; by lab assessment)?
The value was 1.43 Weeks.

What about the “G3/4 Neutropenia median duration” value [1, 2] of the same substance?
Its value is 1.9 Weeks.

And the “G3/4 Thrombocytopenia median duration” value [1, 2]?
The value was 1.4 Weeks.

What about the “Dose delays due to neutropenia” value ([1]; in vivo) of the same substance?
The value was 50.8%.

What about the “Dose delays due to thrombocytopenia” value ([1]; in vivo) of the same substance?
The value was 46.6%.

What about the “Dose reductions due to neutropenia” value ([1]; in vivo) of the same substance?
Its value is 33.1%.

And the “Dose reductions due to thrombocytopenia” value ([1]; in vivo)?
Its value is 22.9%.

What about the “Patients with cytopenias reversible to Grade ≤2 within 4 weeks” value ([1]; in vivo) of the same substance?
Its value is “more than 80%”.

And the “Discontinued: Progressive disease” value ([1]; n=118)?
Its value is 6%.

And the “Grade 3-4 neutropenia” value ([1]; patients with TI ≥1 year)?
The value was 95%.

And the “Grade 3-4 neutropenia, patients” value ([1]; patients with TI ≥1 year)?
Its value is 20 patients.

What about the “Grade 3-4 thrombocytopenia” value ([1]; patients with TI ≥1 year) of the same substance?
Its value is 67%.

And the “Grade 3-4 thrombocytopenia, patients” value ([1]; patients with TI ≥1 year)?
Its value is 14 patients.

What about the “Grade 3/4 neutropenia events, mean (SD) duration” value ([1]; patients with TI ≥1 year) of the same substance?
Its value is 1.78 (1.58) weeks.

What about the “Grade 3/4 neutropenia reversible to grade ≤2 within 4 weeks” value ([1]; patients with TI ≥1 year) of the same substance?
Its value is 81%.

And the “Grade 3/4 thrombocytopenia events, mean (SD) duration” value ([1]; patients with TI ≥1 year)?
Its value is 2.25 (2.48) weeks.

What about the “Grade 3/4 thrombocytopenia reversible to grade ≤2 within 4 weeks” value ([1]; patients with TI ≥1 year) of the same substance?
The value was 89%.

And the “G3/4 Neutropenia resolved <4 weeks” value ([1]; resolved to ≤ Grade 2)?
Its value is 81%.

What about the “G3/4 Thrombocytopenia resolved <4 weeks” value ([1]; resolved to ≤ Grade 2) of the same substance?
The value was 86%.

What about the “Pearson's r: maximum % reduction in DNMT3A VAF vs maximum change in hemoglobin” value (DNMT3A; n=13) of the same substance?
The value was −0.667.

And the “Pearson's r: maximum % reduction in DNMT3A VAF vs duration of TI” value (DNMT3A; n=18)?
Its value is −0.545.

And the “HR, time to first sustained meaningful improvement in fatigue vs placebo” value (patients with LR-MDS)?
Its value is 1.34.

And the “Median time to first sustained, meaningful improvement in fatigue” value (patients with LR-MDS)?
The value was 28.3 weeks.

What about the “Patients with any episode of sustained, meaningful deterioration in fatigue” value (patients with LR-MDS; 118 patients) of the same substance?
The value was 43.2%.

What about the “Patients with sustained, meaningful improvement in fatigue” value (patients with LR-MDS; 118 patients) of the same substance?
Its value is 50.0%.
